In patent publication US20060160841A1, “Crystallization via high-shear transformation” (priority 2005, published 2006):

Experiment: Particle size D[90] of crystals before and after polymorph transformation
Type: physicochemical

SMILES | particle size D[90] (Example 1, needle-shaped crystals formed in vessel B on adding PG solution to water/PG anti-solvent at 10 to 20° C., before recirculation) | particle size D[90] (Example 1, small granular crystals after about 24 hours of recirculation through inline homogenization apparatus) | particle size D[90] (Example 2, small granular crystals after about 30 hours of recirculation by pump through outlet and inlet of vessel B) | particle size D[90] (Example 3, N-1 seeded, overhead homogenizer in transient vessel at 55-65° C., continuous transfer, filtered and dried)
COc1ccc(-n2nc(C(N)=O)c3c2C(=O)N(c2ccc(N4CCCCC4=O)cc2)CC3)cc1 [H2-2, 1-(4-methoxyphenyl)-7-oxo-6-(4-(2-oxopiperidin-1-yl)phenyl)-4,5,6,7-tetrahydro-1H-pyrazolo[3,4-c]pyridine-3-carboxamide] | greater than 160 μm | – | – | –
COc1ccc(-n2nc(C(N)=O)c3c2C(=O)N(c2ccc(N4CCCCC4=O)cc2)CC3)cc1 [N-1, 1-(4-methoxyphenyl)-7-oxo-6-(4-(2-oxopiperidin-1-yl)phenyl)-4,5,6,7-tetrahydro-1H-pyrazolo[3,4-c]pyridine-3-carboxamide] | – | less than 20 μm | less than 20 μm | less than 20 μm
